Results as given in PubChem BioAssay AID328 (DTP/NCI, 2004).
Toxic doses and inconclusive results are not listed.

Tested on: BDF1 mice, P388 leukemia ip, median survival T/C
Assay: NCI In Vivo Anticancer Drug Screen. Data for tumor model P388 Leukemia (intraperitoneal) in B6D2F1 (BDF1) mice
Details: endpoint: median survival time, higher = longer survival
Procedure, shortened: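 Reported as T/C, where T is the survival measurement in dosed animals and C the same measurement in vehicle controls.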

[1] = dose: 12.5 mg/kg/injection, schedule: Q01DX009 (ip), vehicle: saline with Tween-80
[2] = dose: 50.0 mg/kg/injection, schedule: Q01DX009 (ip), vehicle: saline with Tween-80
[3] = dose: 200.0 mg/kg/injection, schedule: Q01DX009 (ip), vehicle: Klucel (hydroxypropylcellulose) (HPC)
[4] = dose: 200.0 mg/kg/injection, schedule: Q04DX003 (ip), vehicle: Klucel (hydroxypropylcellulose) (HPC)
[5] = dose: 200.0 mg/kg/injection, schedule: Q04DX003 (ip), vehicle: saline
[6] = dose: 400.0 mg/kg/injection, schedule: Q04DX003 (ip), vehicle: saline
[7] = dose: 25.0 mg/kg/injection, schedule: Q01DX009 (ip), vehicle: Klucel (hydroxypropylcellulose) (HPC)
[8] = dose: 100.0 mg/kg/injection, schedule: Q04DX003 (ip), vehicle: Klucel (hydroxypropylcellulose) (HPC)
[9] = dose: 100.0 mg/kg/injection, schedule: Q01DX009 (ip), vehicle: Klucel (hydroxypropylcellulose) (HPC)
[10] = dose: 400.0 mg/kg/injection, schedule: Q01DX009 (ip), vehicle: Klucel (hydroxypropylcellulose) (HPC)
[11] = dose: 100.0 mg/kg/injection, schedule: Q01DX009 (ip), vehicle: saline with Tween-80
[12] = dose: 100.0 mg/kg/injection, schedule: Q04DX003 (ip), vehicle: saline with Tween-80
[13] = dose: 200.0 mg/kg/injection, schedule: Q01DX009 (ip), vehicle: saline with Tween-80

O=C1N(Br)C(=O)C(c2ccc(Cl)cc2)(c2ccc(Cl)cc2)N1Br
T/C [1]: 113 % of control
T/C (dose: 45.0 mg/kg/injection, schedule: Q04DX003 (ip), vehicle: Klucel (hydroxypropylcellulose) (HPC)): 90 % of control
T/C [2]: 172 % of control
T/C (dose: 65.0 mg/kg/injection, schedule: Q04DX003 (ip), vehicle: Klucel (hydroxypropylcellulose) (HPC)): 95 % of control
T/C (dose: 100.0 mg/kg/injection, schedule: Q04DX003 (ip), vehicle: alcohol): 150 % of control
T/C (dose: 100.0 mg/kg/injection, schedule: Q04DX003 (ip), vehicle: saline sonified): 115 % of control
T/C (dose: 130.0 mg/kg/injection, schedule: Q01DX009 (ip), vehicle: Klucel (hydroxypropylcellulose) (HPC)): 156 % of control
T/C (dose: 132.0 mg/kg/injection, schedule: Q01DX009 (ip), vehicle: Klucel (hydroxypropylcellulose) (HPC)): 95 % of control
T/C (dose: 132.0 mg/kg/injection, schedule: Q04DX003 (ip), vehicle: Klucel (hydroxypropylcellulose) (HPC)): 177 % of control
T/C (dose: 132.0 mg/kg/injection, schedule: Q04DX003 (ip), vehicle: saline): 165 % of control
T/C (dose: 200.0 mg/kg/injection, schedule: Q01DX003 (ip), vehicle: Klucel (hydroxypropylcellulose) (HPC)): 154 % of control
T/C [3]: 175 % of control
T/C [4]: 154 % of control
T/C (dose: 200.0 mg/kg/injection, schedule: Q04DX003 (ip), vehicle: alcohol): 185 % of control
T/C (dose: 200.0 mg/kg/injection, schedule: Q04DX003 (ip), vehicle: saline sonified): 160 % of control
T/C (dose: 300.0 mg/kg/injection, schedule: Q04DX003 (ip), vehicle: saline): 150 % of control
T/C (dose: 400.0 mg/kg/injection, schedule: Q04DX003 (ip), vehicle: alcohol): 150 % of control

CNC(=O)C(C)(C)Br
T/C [5]: 100 % of control
T/C [6]: 90 % of control

O=[N+]([O-])c1cccc(N/N=C\c2c(Cl)n(-c3ccccc3)c3ccccc23)c1
T/C (dose: 100.0 mg/kg/injection, schedule: Q04DX002 (ip), vehicle: Klucel (hydroxypropylcellulose) (HPC)): 97 % of control
T/C (dose: 200.0 mg/kg/injection, schedule: Q04DX002 (ip), vehicle: Klucel (hydroxypropylcellulose) (HPC)): 93 % of control
T/C (dose: 400.0 mg/kg/injection, schedule: Q04DX002 (ip), vehicle: Klucel (hydroxypropylcellulose) (HPC)): 99 % of control

CN(C)c1ccc(N(C)C)c(C(O)(c2ccccc2)c2ccccc2)c1
T/C [1]: 95 % of control
T/C (dose: 25.0 mg/kg/injection, schedule: Q01DX009 (ip), vehicle: saline with Tween-80): 93 % of control
T/C [2]: 95 % of control

N#CCNC(=O)c1ccccc1
T/C (dose: 6.0 mg/kg/injection, schedule: Q01DX009 (ip), vehicle: Klucel (hydroxypropylcellulose) (HPC)): 88 % of control
T/C (dose: 12.0 mg/kg/injection, schedule: Q01DX009 (ip), vehicle: Klucel (hydroxypropylcellulose) (HPC)): 88 % of control
T/C [7]: 91 % of control
T/C (dose: 25.0 mg/kg/injection, schedule: Q04DX003 (ip), vehicle: Klucel (hydroxypropylcellulose) (HPC)): 110 % of control
T/C (dose: 50.0 mg/kg/injection, schedule: Q04DX003 (ip), vehicle: Klucel (hydroxypropylcellulose) (HPC)): 110 % of control
T/C [8]: 90 % of control

CCCCOC(=O)c1ccc(OCCOc2ccc(C(C)(C)CC(C)(C)C)cc2)c(NC(=O)CC(=O)c2cccc(N)c2)c1
T/C (dose: 6.25 mg/kg/injection, schedule: Q04DX003 (ip), vehicle: saline sonified): 100 % of control
T/C (dose: 12.5 mg/kg/injection, schedule: Q04DX003 (ip), vehicle: saline sonified): 91 % of control

CC(C)=NOC(=O)Nc1ccc(Cl)cc1
T/C [7]: 111 % of control
T/C (dose: 50.0 mg/kg/injection, schedule: Q01DX009 (ip), vehicle: Klucel (hydroxypropylcellulose) (HPC)): 118 % of control
T/C [9]: 124 % of control

O=C1C(OC(=O)c2ccccc2)=C(c2ccc(O)cc2)C(=O)C(OC(=O)c2ccccc2)=C1c1ccc(O)cc1
T/C [9]: 100 % of control
T/C [3]: 100 % of control
T/C [10]: 92 % of control

O=C(NCc1cnccn1)Nc1ccccc1
T/C (dose: 25.0 mg/kg/injection, schedule: Q04DX003 (ip), vehicle: saline): 104 % of control
T/C (dose: 50.0 mg/kg/injection, schedule: Q04DX003 (ip), vehicle: saline): 103 % of control
T/C (dose: 100.0 mg/kg/injection, schedule: Q04DX003 (ip), vehicle: saline): 87 % of control
T/C [5]: 100 % of control
T/C [6]: 100 % of control

COC(=O)CS(=O)(=O)C(C)(C)C(=O)c1ccccc1
T/C (dose: 75.0 mg/kg/injection, schedule: Q01DX001 (ip), vehicle: other): 100 % of control
T/C (dose: 150.0 mg/kg/injection, schedule: Q01DX001 (ip), vehicle: other): 120 % of control
T/C (dose: 300.0 mg/kg/injection, schedule: Q01DX001 (ip), vehicle: other): 110 % of control

CC(=O)C(O)N1C(=O)C=CC1=O (stereo not given)
T/C (dose: 0.31 mg/kg/injection, schedule: Q04DX003 (ip), vehicle: saline): 95 % of control
T/C (dose: 0.62 mg/kg/injection, schedule: Q04DX003 (ip), vehicle: saline): 100 % of control
T/C (dose: 1.25 mg/kg/injection, schedule: Q04DX003 (ip), vehicle: saline): 100 % of control
T/C (dose: 2.5 mg/kg/injection, schedule: Q04DX003 (ip), vehicle: saline): 91 % of control
T/C (dose: 5.0 mg/kg/injection, schedule: Q04DX003 (ip), vehicle: saline): 91 % of control

CC(O)(/C=C\c1ccccc1)c1ccccc1 (stereo not given)
T/C [11]: 105 % of control
T/C [12]: 95 % of control
T/C [13]: 107 % of control
T/C (dose: 200.0 mg/kg/injection, schedule: Q04DX003 (ip), vehicle: saline with Tween-80): 104 % of control
T/C (dose: 400.0 mg/kg/injection, schedule: Q01DX009 (ip), vehicle: saline with Tween-80): 105 % of control
T/C (dose: 400.0 mg/kg/injection, schedule: Q04DX003 (ip), vehicle: saline with Tween-80): 104 % of control

O=[N+]([O-])c1cc(Br)c(N2CCCC2)cc1N1CCCC1
T/C [9]: 104 % of control
T/C [8]: 100 % of control
T/C [3]: 100 % of control
T/C [4]: 95 % of control
T/C [10]: 100 % of control
T/C (dose: 400.0 mg/kg/injection, schedule: Q04DX003 (ip), vehicle: Klucel (hydroxypropylcellulose) (HPC)): 110 % of control

CC(C)=CC(=O)OCC1CC[N+](C)(C)C1 (stereo not given)
T/C (dose: 25.0 mg/kg/injection, schedule: Q01DX009 (ip), vehicle: saline): 111 % of control
T/C (dose: 50.0 mg/kg/injection, schedule: Q01DX009 (ip), vehicle: saline): 100 % of control

CCOC(=O)CSc1cc(C)c2c(N)c(C(=O)OCC)sc2n1
T/C (dose: 50.0 mg/kg/injection, schedule: Q01DX005 (ip), vehicle: saline with Tween-80): 88 % of control
T/C (dose: 100.0 mg/kg/injection, schedule: Q01DX005 (ip), vehicle: saline with Tween-80): 91 % of control
T/C (dose: 200.0 mg/kg/injection, schedule: Q01DX005 (ip), vehicle: saline with Tween-80): 89 % of control

CCc1ccc(C2=C(O)C(=O)C(c3ccccc3)=C(O)C2=O)cc1
T/C (dose: 12.5 mg/kg/injection, schedule: Q01DX010 (ip), vehicle: saline): 109 % of control
T/C (dose: 50.0 mg/kg/injection, schedule: Q01DX010 (ip), vehicle: saline): 159 % of control

O=C1NC(c2cccc3c2OCO3)N=C2Oc3ccccc3C=C12 (stereo not given)
T/C [2]: 98 % of control
T/C [11]: 93 % of control
T/C [13]: 93 % of control

Cc1ccc(NC(=S)NNC(=S)NNc2ccccc2)cc1C
T/C [9]: 115 % of control
T/C [3]: 120 % of control

O=[N+]([O-])c1cccc(/C=C/c2cc(N(CCO)CCO)c3ccccc3n2)c1
T/C [2]: 91 % of control
T/C [11]: 89 % of control
T/C [13]: 94 % of control

CC1(C)C2CCC1(C)C(OC(=O)c1ccc([N+](=O)[O-])cc1)C2OC(=O)c1ccc([N+](=O)[O-])cc1 (stereo not given)
T/C (dose: 75.0 mg/kg/injection, schedule: Q04DX003 (ip), vehicle: other): 100 % of control
T/C (dose: 150.0 mg/kg/injection, schedule: Q04DX003 (ip), vehicle: other): 91 % of control
T/C (dose: 300.0 mg/kg/injection, schedule: Q04DX003 (ip), vehicle: other): 91 % of control

CC(C)(C)c1ccc(C(=O)C2CC2)cc1
T/C (dose: 25.0 mg/kg/injection, schedule: Q04DX003 (ip), vehicle: saline with Tween-80): 90 % of control
T/C (dose: 50.0 mg/kg/injection, schedule: Q04DX003 (ip), vehicle: saline with Tween-80): 95 % of control
T/C [12]: 86 % of control
